Test results from US20240156805A1, “COMPOUND FOR INHIBITING NONSENSE-MEDIATED MRNA DECAY” (RIBOTECH CO., LTD., priority 2021, published 2024).

Assays:
dystrophin protein = assay: Dystrophin protein in DMD patient-derived cell line, Western blotting; type: cell-based, human; details: 5 μM for 12 hours, FIG. 11
UPF1 = assay: Effect on phosphorylation of UPF1, western blotting; type: cell-based; details: 5 μM for 12 hours, FIG. 5
Procedure: Phosphorylation of UPFI was known to be one of the most important factors in NMD. In Example 3.1, the effect of the three types of compounds of the present invention on phosphorylation of UPFI was examined. The cells were treated with each compound at 5 μM for 12 hours, and then total proteins were purified. Then, western blotting was performed using each antibody capable of recognizing Upfl or Upfl phosphorylated at a specific site.

UPF1 and UPF2 = target: T1, UPF1 and UPF2 (Homo sapiens, UniProt Q92900+Q9HAU5); assay: Effect on binding between UPF1 and UPF2, FLAG-UPF1 immunoprecipitation and western blotting; type: cell-based; details: 5 μM for 1 hour; FLAG immunoprecipitation; FIG. 6
T1 construct: expressed in transfected cells
T1 sequence (Q92900 1-1129): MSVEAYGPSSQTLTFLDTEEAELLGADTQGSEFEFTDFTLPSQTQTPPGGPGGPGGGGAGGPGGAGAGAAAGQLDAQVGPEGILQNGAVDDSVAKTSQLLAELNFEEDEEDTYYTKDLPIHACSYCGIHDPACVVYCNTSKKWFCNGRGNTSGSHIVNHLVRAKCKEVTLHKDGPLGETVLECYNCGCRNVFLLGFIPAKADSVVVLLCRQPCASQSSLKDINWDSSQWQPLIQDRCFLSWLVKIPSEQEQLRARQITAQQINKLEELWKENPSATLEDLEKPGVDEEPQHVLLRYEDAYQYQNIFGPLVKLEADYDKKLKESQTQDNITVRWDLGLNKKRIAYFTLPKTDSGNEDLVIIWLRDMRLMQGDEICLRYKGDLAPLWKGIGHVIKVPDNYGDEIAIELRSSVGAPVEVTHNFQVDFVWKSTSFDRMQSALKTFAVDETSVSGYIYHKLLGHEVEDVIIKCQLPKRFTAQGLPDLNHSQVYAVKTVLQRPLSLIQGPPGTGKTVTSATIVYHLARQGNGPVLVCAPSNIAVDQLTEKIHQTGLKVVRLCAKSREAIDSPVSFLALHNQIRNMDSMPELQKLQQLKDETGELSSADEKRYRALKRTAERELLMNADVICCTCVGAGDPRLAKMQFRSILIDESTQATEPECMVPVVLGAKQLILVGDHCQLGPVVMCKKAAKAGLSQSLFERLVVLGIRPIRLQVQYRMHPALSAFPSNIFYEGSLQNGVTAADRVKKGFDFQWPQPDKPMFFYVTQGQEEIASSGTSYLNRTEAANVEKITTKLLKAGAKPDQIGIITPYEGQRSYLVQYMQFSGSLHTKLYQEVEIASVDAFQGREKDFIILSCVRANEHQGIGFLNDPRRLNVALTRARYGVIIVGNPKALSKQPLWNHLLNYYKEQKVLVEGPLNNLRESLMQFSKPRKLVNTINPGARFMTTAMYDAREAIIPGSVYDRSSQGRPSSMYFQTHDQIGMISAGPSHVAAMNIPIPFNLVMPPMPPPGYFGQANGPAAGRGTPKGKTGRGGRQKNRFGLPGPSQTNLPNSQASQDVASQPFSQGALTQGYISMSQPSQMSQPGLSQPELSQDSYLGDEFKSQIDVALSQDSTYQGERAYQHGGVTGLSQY
T1 sequence (Q9HAU5 1-1272): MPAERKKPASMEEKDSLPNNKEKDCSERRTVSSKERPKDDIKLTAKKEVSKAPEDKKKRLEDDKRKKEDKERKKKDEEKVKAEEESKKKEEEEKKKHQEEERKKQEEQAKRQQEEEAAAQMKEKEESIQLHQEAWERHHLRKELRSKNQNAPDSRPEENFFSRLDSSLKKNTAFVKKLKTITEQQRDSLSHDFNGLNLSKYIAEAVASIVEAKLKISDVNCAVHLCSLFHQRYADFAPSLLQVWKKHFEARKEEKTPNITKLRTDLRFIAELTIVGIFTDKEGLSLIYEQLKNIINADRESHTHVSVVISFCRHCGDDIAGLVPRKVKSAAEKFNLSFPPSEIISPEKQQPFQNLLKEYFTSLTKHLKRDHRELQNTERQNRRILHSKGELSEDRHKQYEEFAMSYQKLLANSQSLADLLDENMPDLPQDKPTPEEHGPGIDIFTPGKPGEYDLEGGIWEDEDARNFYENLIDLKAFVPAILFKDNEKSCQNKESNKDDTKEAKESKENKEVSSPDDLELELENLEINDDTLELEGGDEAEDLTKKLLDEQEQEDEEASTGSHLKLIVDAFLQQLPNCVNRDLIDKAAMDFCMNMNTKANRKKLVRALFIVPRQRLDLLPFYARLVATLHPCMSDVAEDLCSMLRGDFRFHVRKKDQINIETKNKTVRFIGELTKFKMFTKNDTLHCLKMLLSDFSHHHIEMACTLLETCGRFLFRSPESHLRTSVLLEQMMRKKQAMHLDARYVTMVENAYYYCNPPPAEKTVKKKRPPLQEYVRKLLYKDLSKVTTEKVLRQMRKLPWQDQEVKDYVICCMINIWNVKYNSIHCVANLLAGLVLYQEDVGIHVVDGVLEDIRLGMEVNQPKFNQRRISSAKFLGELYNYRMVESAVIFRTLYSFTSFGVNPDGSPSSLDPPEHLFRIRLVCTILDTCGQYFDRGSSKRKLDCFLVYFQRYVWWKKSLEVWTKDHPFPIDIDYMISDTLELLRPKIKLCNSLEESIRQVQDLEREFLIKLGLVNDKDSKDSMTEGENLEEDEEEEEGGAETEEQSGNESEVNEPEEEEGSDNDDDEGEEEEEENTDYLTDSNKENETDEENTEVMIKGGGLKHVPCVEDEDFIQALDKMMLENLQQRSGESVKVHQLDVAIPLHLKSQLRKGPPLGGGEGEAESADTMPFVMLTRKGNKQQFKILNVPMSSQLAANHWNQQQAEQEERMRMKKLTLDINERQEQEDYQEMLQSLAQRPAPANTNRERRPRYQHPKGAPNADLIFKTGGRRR
Procedure: In the cell line, DNA expressing FLAG-UPF1 was transiently overexpressed.
After treating the cell line with each compound at 5 μM for 1 hour, a cell extract was obtained. Immunoprecipitation was performed on the cell extract obtained using a FLAG antibody.
Proteins before and after immunoprecipitation were analyzed by western blotting.

[1] = system: β-6bs mRNA (reporter mRNA); assay: Tethering of MS2-Upf1, MS2-Upf2, MS2-Upf3 to 3' UTR of reporter mRNA in HeLa cell line, real-time PCR; type: cell-based; details: 5 μM for 6 hours or 12 hours; FIGS. 8 and 9
Procedure: An NMD-based search system capable of artificially reducing the amount of reporter mRNA was constructed, after artificially tethering proteins Upf1, Upf2, and Upf3X acting in each step of NMD to 3′ UTR of reporter mRNA (FIG. 7). Using this method, it was attempted to verify which step of NMD the three types of compounds acted on.
After treating the cell line with each compound at 5 μM for 6 hours or 12 hours, a cell extract was obtained. Thereafter, the relative amount of reporter mRNA was measured through real-time PCR.

[2] = system: HeLa cell line constitutively expressing the NMD-target mRNA (RLuc-beta-globin PTC); assay: NMD reporter HeLa cell lines (NMD20, NMD4, NMD5), RLuc/FLuc dual luciferase assay; type: cell-based; details: 5 μM for 12 hours, FIG. 4
Procedure: In Example 1, a beta-globin normal gene or the gene including a premature termination codon (PTC) found in genetic diseases was inserted into the downstream of a chemiluminescence gene, Renilla luciferase (RLuc). Normal gene-inserted mRNA was not targeted by NMD, whereas when a gene having PTC was inserted, the mRNA became a NMD target, and as a result, mRNA was quickly broken down and the expression level of RLuc was reduced. […]
First, each of the prepared cell lines was treated with caffeine, which was known as a non-specific NMD inhibitor, to confirm the degree of RLuc activity to FLuc activity. […] Then, the expression levels of RLuc and FLuc proteins were measured by dual luciferase assay.
Additionally, it was attempted to determine whether the prepared HeLa cell line was suitable for performing high-throughput screening (HTS). Experiments were performed by optimizing the conditions such as the number of cells, the amounts of used reagent and buffer, and the like in a 384-well format to be suitable for HTS (FIG. 3), and NMD efficiency was measured using Wortmannin, which was a non-specific NMD inhibitor, as a control substance. […]
The NMD inhibitory effect of Compounds 1 to 3 was confirmed using the HeLa cell line prepared in Example 1. […] Then, the amounts of RNA and protein were quantified respectively through real-time PCR and dual luciferase assay methods. […]

[3] = system: HeLa cell line constitutively expressing the NMD-target mRNA (RLuc-beta-globin PTC); assay: NMD reporter HeLa cell line, RLuc mRNA by real-time PCR; type: cell-based; details: 5 μM for 12 hours, FIG. 4
From the text: In Example 1, a beta-globin normal gene or the gene including a premature termination codon (PTC) found in genetic diseases was inserted into the downstream of a chemiluminescence gene, Renilla luciferase (RLuc). Normal gene-inserted mRNA was not targeted by NMD, whereas when a gene having PTC was inserted, the mRNA became a NMD target, and as a result, mRNA was quickly broken down and the expression level of RLuc was reduced.
Accordingly, a HeLa cell line constitutively expressing the NMD-target mRNA was prepared, and simultaneously, the cell line was designed to constitutively express a firefly luciferase (FLuc) gene, which was not a target of NMD, and a total of three cell lines NMD20, NMD4, and NMD5 with the same composition were obtained. In order to confirm whether the HeLa cell line prepared above was suitable for measuring NMD efficiency, the following two experiments were performed.
The NMD inhibitory effect of Compounds 1 to 3 was confirmed using the HeLa cell line prepared in Example 1. After treating the cells with Compounds 1 to 3 at 5 μM for 12 hours, respectively, total RNA and protein were purified from the cells, respectively. Then, the amounts of RNA and protein were quantified respectively through real-time PCR and dual luciferase assay methods. The results were illustrated in FIG. 4.

COc1ncc(-c2ccc3nccc(-c4ccnnc4)c3c2)cc1NS(=O)(=O)c1ccc(F)cc1F [Compound 1, 2,4-Difluoro-N-{2-(methyloxy)-5-[4-(4-pyridazinyl)-6-quinolinyl]-3-pyridinyl} benzenesulfonamide] was tested. Which “amount of dystrophin protein expressed in cells” value (dystrophin protein) did it give?
Its value is “increased”.

And the “phosphorylation of UPF1” value (UPF1)?
The value was “did not significantly affect”.

And the UPF1-UPF2 binding (UPF1 and UPF2)?
The UPF1-UPF2 binding was “significantly inhibited”.

What about the “NMD step targeted (relative amount of reporter mRNA)” value [1] of the same compound?
The value was “targeted a UPF1-UPF2 step”.

What about the “protein translation of RLuc” value [2] of the same compound?
The value was “increased”.

Which “amount of RLuc mRNA” value [3] does the source give for Cn1c(=O)n(-c2ccc(C(C)(C)C#N)cc2)c2c3cc(-c4cnc5ccccc5c4)ccc3ncc21 [Compound 2, 2-methyl-2-{4-[3-methyl-2-oxo-8-(quinolin-3-yl)-2,3-dihydro-1H-imidazo[4,5-c]quinolin-1-yl]phenyl} propanenitrile] here?
The value was “significantly increased”.

And the “phosphorylation of UPF1” value (UPF1)?
The value was “significantly inhibited”.

And the UPF1-UPF2 binding (UPF1 and UPF2)?
Its UPF1-UPF2 binding is “did not significantly affect”.

What about the “NMD step targeted (relative amount of reporter mRNA)” value [1] of the same compound?
Its value is “did not target the UPF1-UPF2 and UPF2-UPF3 steps”.

Which results are given for COc1cc2ncnc(-n3nc(-c4ccccn4)nc3N)c2cc1OC [Compound 3, 1-(6,7-Dimethoxy-4-quinazolinyl)-3-(2-pyridinyl)-1H-1,2,4-Triazol-5-amine]?
amount of RLuc mRNA [3]: significantly increased; phosphorylation of UPF1 (UPF1): did not significantly affect; UPF1-UPF2 binding (UPF1 and UPF2): did not significantly affect; NMD step targeted (relative amount of reporter mRNA) [1]: did not target the UPF1-UPF2 and UPF2-UPF3 steps
